Laboratory results as given in patent publication US20240066137A1, “NOVEL PROTEIN CONJUGATE, AND USE THEREOF FOR PREVENTING OR TREATING NONALCOHOLIC STEATOHEPATITIS, OBESITY AND DIABETES” (ONEGENE BIOTECHNOLOGY INC., priority 2020, published 2024).
Read-outs that look alike come from different tables or passages of the source.

How the values were obtained:
[1] = target: NF-κB activity by IL-1β; assay: NF-κB reporter gene luciferase assay; type: cell-based; settings: IL-1β stimulated
Protocol: The cells were cultured to 70-80% full in a T-75 flask. The medium was removed and washed once with 5 mL of the pre-warmed PBS. PBS was removed, and 1 mL of TryPLE Express was added, and incubated for 5 minutes in an incubator at 37° C. and 5% CO2, and the cells were detached. It was mixed with 4 mL of assay medium (10% FBS, 1% antibiotic in DMEM), and the mixture was transferred to a 15 mL tube, centrifuged at 1,000 rpm for 3 minutes, and then again released in 5 mL of assay medium. The number of cells was counted, and the concentration was allowed to be 500,000 cells/mL. It was transferred to a reservoir, and 40 μL per well was dispensed into a white 96-well half-area cell culture plate using a multi-channel pipette (20,000 cells/well). Only 40 μL of assay medium was dispensed into the blank well. The cells were incubated in an incubator at 37° C. and 5% CO2 for 24 hours to allow to be attached.
5 μL of each of the reference (10×) and sample (10×) prepared by 4-fold serial dilution was dispensed in duplicate. Thereafter, 5 μL of 50 pM IL-1β (10×) was dispensed and incubated in an incubator at 5% CO2 for 4 hours. 50 μL of ONE-Glo reagent (Promega, Cat. No. E6120) was each dispensed and cultured at room temperature for 5 minutes, and then the luminescence was measured with a Synergy Neo2 instrument. At this time, before treatment with ONE-Glo reagent, the plate was removed from the incubator for 15 minutes and allowed to reach room temperature.
The Delta RLU (relative luminescence unit) (ΔRLU) was calculated as follows.
ΔRLU=RLUsample−RLUblank=Signal−background luminescence
The IC50 values were obtained as ΔRLU by each concentration using GraphPad Prism 8, as follows (curve-fitting of the log (antagonist) vs. normalized response−variable slope equation).
In order to test the ability of the native IL-1RA and the IL-1RA analogue to inhibit NF-κB activity by IL-1β at the cellular level (in vitro), the NF-κB reporter gene luciferase assay was performed in the same manner as in Test Example 3.

[2] = target: GLP-1R (GLP-1 acceptor) (Homo sapiens, UniProt P43220); assay: cAMP accumulation assay, GLP-1 acceptor overexpressing cells
[3] = test system: C57BL/6J mice in which fatty liver was induced by feeding MCD; assay: In-vivo efficacy against non-alcoholic steatohepatitis (MCD diet mice); set-up: species or system mouse; ALT / Hepatic TGF-β / Hepatic Triglyceride: unit not given here; settings: for ALT: dulaglutide 2 nmol/kg s.c. 1 time/2 days, 14 times; for Hepatic TGF-β: liver tissue ELISA; for Hepatic Triglyceride / Lobular inflammation score (Lobular inflammation) / NAS (NAFLD Activity Score) / Steatosis score (Steatosis): liver tissue
From the text: The MCD mouse model is the most typically used method for efficacy testing against non-alcoholic steatohepatitis, and it is known that the histological appearance of the induced liver tissue from week 2 to week 4 is histologically similar to that of human non-alcoholic steatohepatitis. There are many precedent cases in which a number of pharmaceutical companies and academia conducted tests with various substances.
Fatty liver was induced by feeding MCD to male C57BL/6J mice for 8 weeks, and then the mice were divided into 6 groups shown in Table 7 below, and drug administration was performed for 4 weeks. As a comparative substance, two currently commercially available drugs, liraglutide (Saxenda) and dulaglutide (Trulycity), were used. The administered composition was repeatedly administered subcutaneously using a disposable syringe according to each administration cycle. […] The normal control group was fed with MCS (Methionine and Choline Sufficient L-Amino Acid Diet).
During the 4-week administration period, general symptoms and behavior were observed, and body weight was measured once a week after the start of administration and on the day of tissue extraction. Blood collection and liver tissue extraction were performed on the day of the end of observation, and blood was subjected to a hematological-biochemical test, and the extracted liver tissue was subjected to a histopathological test.
Alanine aminotransferase (ALT), which is used as the most basic indicator of liver disease, was measured through a hematological-biochemical test, and the results are shown in Table 8 below and FIG. 21.
In addition, histopathological test was performed by observation through H&E and Masson's trichrome staining, and the results are shown in FIG. 23. In the case of non-alcoholic steatohepatitis, steatosis and inflammation in lobules occurs, and inflammatory cells can be identified by tissue staining.
In addition, based on the evaluation criteria shown in Table 10 below, steatosis score, lobular inflammation score, and NAS (NAFLD activity score) were evaluated.
In addition, triglyceride accumulation in the liver tissue was analyzed using the Triglyceride Assay Kit, and the results are shown in Table 15 below and FIG. 28.
The mice were divided into 4 groups shown in Table 16 below, and the experiment was conducted in the same manner as in Test Example 4 above. As a comparative substance, the currently commercially available dulaglutide (Trulycity) was used.

[4] = Test Example 4, dulaglutide 2 nmol/kg
[5] = Test Example 5, dulaglutide 2 nmol/kg

Sequence of GLP-1R (GLP-1 acceptor) (P43220 24-463): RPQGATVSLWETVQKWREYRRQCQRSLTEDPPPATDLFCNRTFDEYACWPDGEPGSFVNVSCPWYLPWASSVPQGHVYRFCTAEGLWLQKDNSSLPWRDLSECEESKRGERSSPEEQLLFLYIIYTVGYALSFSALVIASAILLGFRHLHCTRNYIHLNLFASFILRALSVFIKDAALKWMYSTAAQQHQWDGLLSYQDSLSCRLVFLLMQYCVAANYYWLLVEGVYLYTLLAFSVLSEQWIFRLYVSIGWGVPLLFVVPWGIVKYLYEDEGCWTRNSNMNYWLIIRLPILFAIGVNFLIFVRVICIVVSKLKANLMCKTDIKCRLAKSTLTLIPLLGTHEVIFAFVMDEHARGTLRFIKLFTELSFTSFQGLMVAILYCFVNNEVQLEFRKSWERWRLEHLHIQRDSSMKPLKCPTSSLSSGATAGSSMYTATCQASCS

rhIL-1RA: native IL-1RA, SEQ ID NO: 27
IC50 ([1]; Test Example 3, mean of 4 runs, read-out: IC50, Mean): 0.0475 nM | IC50 ([1]; Test Example 3, run 1, read-out: IC50, 1): 0.0399 nM | IC50 ([1]; Test Example 3, run 2, read-out: IC50, 2): 0.0515 nM | IC50 ([1]; Test Example 3, run 3, read-out: IC50, 3): 0.0466 nM | IC50 ([1]; Test Example 3, run 4, read-out: IC50, 4): 0.0519 nM | IC50 ([1]; Test Example 9 screening, read-out: IC50): 0.0686 ± 0.00771 nM

Dulaglutide [reference compound]
EC50 ([2]; Test Example 9 screening, Cell line: Stable): 0.00145 ± 0.00045 nM | EC50 ([2]; read-out: EC50 GLP-1R, 1, Test Example 1, run 1): 0.00123 nM | EC50 ([2]; read-out: EC50 GLP-1R, Mean, Test Example 1, mean of 2 runs): 0.00107 nM | ALT ([3]; Test Example 4, blood): 220.5 | Hepatic TGF-β [3, 4]: 159.60 | Hepatic Triglyceride [3, 4]: 40.78 | Lobular inflammation score (Lobular inflammation) [3, 4]: 1.5 | NAS (NAFLD Activity Score) [3, 4]: 3.4 | Steatosis score (Steatosis) [3, 4]: 1.9 | AST/ALT value ([3]; Test Example 5, blood, dulaglutide 2 nmol/kg): 0.76 | ALT ([3]; Test Example 5, blood): 246.8 | Hepatic TGF-β [3, 5]: 165.3 | Hepatic Triglyceride [3, 5]: 36.08 | Lobular inflammation score (Lobular inflammation) [3, 5]: 1.6 | NAS (NAFLD Activity Score) [3, 5]: 3.4 | Steatosis score (Steatosis) [3, 5]: 1.8
